# Reference: ChEMBL document CHEMBL1201862, “PubChem BioAssay data set” (2004)
# The source made the active and inactive calls.
# What was measured:
# [1] = viability of HCT116 lacking mutant beta-catenin – cell-based, human colon tumor, dose response (AID 1045); type: functional;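 further: HCT116 colon tumor cells with beta catenin knocked out; cells exposed to compound for 60 hours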
# HEK293 = experiment: cells; type: functional, cell-based; conditions: Homo sapiens
# [2] = viability of PTEN-deleted HCT116 cells – cell-based, HCT116 PTEN knockout, dose response (AID 1047); type: functional;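 further: HCT116 colon tumor cells with PTEN knocked out; cells exposed to compound for 60 hours before readout; potency for loss of cell viability measured by luminescence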
# [3] = target: T1, Nuclear receptor subfamily 0 group B member 1 (Homo sapiens, UniProt P51843); experiment: Luminescence-based cell-based high throughput dose response assay for inhibitors of the orphan nuclear receptor subfamily 0, group B, member 1 (DAX1; NR0B1). [Related pubchem assays (depositor defined):AID504766, AID504790]; type: functional
# T1 sequence (P51843 whole entry): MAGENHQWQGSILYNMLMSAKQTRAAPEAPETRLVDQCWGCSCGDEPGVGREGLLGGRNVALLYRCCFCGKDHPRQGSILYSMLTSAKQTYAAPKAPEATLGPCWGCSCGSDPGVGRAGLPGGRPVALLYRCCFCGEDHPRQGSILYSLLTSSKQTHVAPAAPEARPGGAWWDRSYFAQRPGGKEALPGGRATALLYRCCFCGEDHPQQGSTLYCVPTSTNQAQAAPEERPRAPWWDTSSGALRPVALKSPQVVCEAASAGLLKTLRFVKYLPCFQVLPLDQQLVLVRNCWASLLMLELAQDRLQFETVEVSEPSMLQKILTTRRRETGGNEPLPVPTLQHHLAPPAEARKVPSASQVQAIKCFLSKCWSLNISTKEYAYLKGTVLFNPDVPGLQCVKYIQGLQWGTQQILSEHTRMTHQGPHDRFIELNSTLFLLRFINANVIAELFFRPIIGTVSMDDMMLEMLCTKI
# [4] = viability loss in Vero cells – cytotoxicity control for Vif-APOBEC3G degradation inhibitor project, dose response (AID 1117358); type: functional; conditions: Vero
# [5] = Luminescence Cell-Based Dose Retest to Confirm Inhibitors of Cancer Stem Cells. [Related pubchem assays (depositor defined):AID2717, AID2721]; type: functional; conditions: Homo sapiens
# [6] = HIV-1 Vif–A3G interaction blockers – biochemical, TR-FRET, GST-Vif 1-94, biotin-A3G peptide, dose response retest, primary screen (AID 1117319); type: functional;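 further: TR-FRET signal of purified GST-Vif binding a biotinylated A3G peptide; inhibitors lower the FRET signal by blocking Vif and A3G binding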
# cells [7] = type: functional, cell-based
# [8] = loss of viability in HepG2 cells – cell-based, CellTiter-Glo, cherry-picked, cytotoxicity control for Shn3 inhibitor project, dose response (AID 624134); type: functional
# [9] = target: T2, Ubiquitin-conjugating enzyme E2 N (Homo sapiens, UniProt P61088); type: functional;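 further: Dose-response confirmation in a TR-FRET assay detecting UBC13-driven polyubiquitin chain formation, inhibition measured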
# T2 sequence (P61088 whole entry): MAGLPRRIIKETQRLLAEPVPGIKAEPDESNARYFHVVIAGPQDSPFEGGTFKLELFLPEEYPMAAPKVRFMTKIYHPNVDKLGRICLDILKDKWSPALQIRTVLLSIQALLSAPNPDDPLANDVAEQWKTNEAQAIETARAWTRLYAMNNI
# cells [10] = type: functional, cell-based; remark: listed apart in the source
# INS1 = experiment: INS-1E survival protection against cytokine death – cell-based, luminescence, retest, dose response (AID 449756); type: functional; conditions: Rattus norvegicus;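 further: cell death triggered by IL-1 beta plus TNF-alpha plus IFN-gamma mixture; protective hits raise ATP signal compared with cytokine alone wells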
# [11] = target: T3, Trace amine-associated receptor 1 (Homo sapiens, UniProt Q96RJ0); experiment: Fluorescence-based cell-based high throughput dose response assay to identify agonists of the human trace amine associated receptor 1 (TAAR1).; type: functional
# T3 sequence (Q96RJ0 whole entry): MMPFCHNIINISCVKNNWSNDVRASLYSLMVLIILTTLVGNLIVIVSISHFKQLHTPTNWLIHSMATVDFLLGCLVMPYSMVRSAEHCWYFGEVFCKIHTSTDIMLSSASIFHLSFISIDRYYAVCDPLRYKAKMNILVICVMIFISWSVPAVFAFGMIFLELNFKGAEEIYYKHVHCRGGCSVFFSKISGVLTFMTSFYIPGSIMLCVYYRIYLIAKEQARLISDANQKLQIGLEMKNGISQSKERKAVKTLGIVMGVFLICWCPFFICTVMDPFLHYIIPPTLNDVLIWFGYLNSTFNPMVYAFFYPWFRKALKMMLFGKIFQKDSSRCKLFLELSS
# [12] = reduction of Shn3 3'UTR-driven luciferase in osteoblasts – cell-based, Clone20 osteoblasts, firefly luciferase, cherry-picked, dose response (AID 624132); type: functional;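 further: firefly luciferase luminescence from reporter carrying the Shn3 3'UTR in osteoblasts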
# [13] = target: T3, Trace amine-associated receptor 1; experiment: Counterscreen for agonists of the human trace amine associated receptor 1 (hTAAR1): Fluorescence-based cell-based high throughput dose response assay to identify hTAAR1 agonist that also desensitize TAAR1 receptor response.; type: functional
# [14] = non-specific 3'UTR reporter inhibition in Clone20-Shn3RL – cell-based, Renilla luciferase, cherry-picked, counter-screen for Shn3 inhibitor project, dose response (AID 624133); type: functional
# [15] = target: T4, Rac GTPase-activating protein 1 (Homo sapiens, UniProt Q9H0H5); experiment: blockers of MgcRacGAP-driven Rac1 GTP hydrolysis – biochemical, ADP Hunter fluorescence, primary and confirmatory, confirmation (AID 624330); type: functional
# T4 sequence (Q9H0H5 whole entry): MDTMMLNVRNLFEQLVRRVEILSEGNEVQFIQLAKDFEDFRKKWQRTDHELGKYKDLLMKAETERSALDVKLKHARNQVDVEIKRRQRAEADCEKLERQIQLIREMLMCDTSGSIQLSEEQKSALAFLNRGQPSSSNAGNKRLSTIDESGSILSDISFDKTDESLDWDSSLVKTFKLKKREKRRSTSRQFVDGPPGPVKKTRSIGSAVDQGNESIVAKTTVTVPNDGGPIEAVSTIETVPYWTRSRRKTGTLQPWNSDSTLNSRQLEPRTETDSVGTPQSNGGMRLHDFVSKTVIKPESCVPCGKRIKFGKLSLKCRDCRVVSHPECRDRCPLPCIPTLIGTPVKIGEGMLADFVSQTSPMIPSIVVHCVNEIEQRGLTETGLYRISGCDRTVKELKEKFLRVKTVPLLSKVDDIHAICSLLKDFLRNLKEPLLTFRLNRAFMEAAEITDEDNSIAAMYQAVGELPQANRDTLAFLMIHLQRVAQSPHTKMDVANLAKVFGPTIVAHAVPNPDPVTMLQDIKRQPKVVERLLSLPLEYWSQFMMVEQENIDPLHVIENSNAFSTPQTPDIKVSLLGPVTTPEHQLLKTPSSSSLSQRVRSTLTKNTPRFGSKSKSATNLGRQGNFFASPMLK
# [16] = target: T5, Hepatocyte nuclear factor 4-alpha (Homo sapiens, UniProt P41235); type: functional, cell-based;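 further: biochemical luminescence-based dose-response counterscreen measuring inhibition of HNF4 dimerization, run alongside a screen for blockers of ABHD5–perilipin-5 interaction; split luciferase complementation of HNF4 fusion proteins in cell lysate measuring dimerization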
# T5 sequence (P41235 whole entry): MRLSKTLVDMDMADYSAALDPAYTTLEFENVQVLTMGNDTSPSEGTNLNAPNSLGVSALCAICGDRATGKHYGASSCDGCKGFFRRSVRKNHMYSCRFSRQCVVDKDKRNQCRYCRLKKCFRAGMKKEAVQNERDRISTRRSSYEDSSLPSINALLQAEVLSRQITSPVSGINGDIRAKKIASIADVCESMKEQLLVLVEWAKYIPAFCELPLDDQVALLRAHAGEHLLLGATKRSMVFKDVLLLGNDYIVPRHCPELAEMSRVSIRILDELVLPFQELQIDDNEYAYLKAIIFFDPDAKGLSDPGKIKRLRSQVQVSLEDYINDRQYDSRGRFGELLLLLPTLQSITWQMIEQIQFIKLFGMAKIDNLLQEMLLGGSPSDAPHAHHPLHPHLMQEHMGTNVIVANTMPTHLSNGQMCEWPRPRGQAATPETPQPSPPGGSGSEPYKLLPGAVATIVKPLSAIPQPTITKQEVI
# BJ [17] = experiment: BJ-TERT-LT-ST fibroblast viability loss – cell-based, RAS-independent, luminescence, dose response (AID 1935); type: functional; conditions: Homo sapiens;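 further: BJ fibroblasts immortalized with TERT plus LT and ST oncogenes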
# [18] = DRD fibroblast viability loss – cell-based, non-viral oncogenic, luminescence, dose response (AID 1934); type: functional; conditions: Homo sapiens
# BJ [19] = experiment: BJ-TERT fibroblast viability loss – cell-based, RAS-independent, luminescence, dose response (AID 1933); type: functional; conditions: Homo sapiens
# BJ [20] = experiment: cells; type: functional, cell-based; conditions: Homo sapiens
# Genome polyprotein = Genome polyprotein (dengue virus type 2, UniProt P29990); experiment: flavivirus cap methylation enzyme inhibition – biochemical, confirmation dose response, primary screen (AID 588689); type: functional
# Genome polyprotein, sequence (P29990 2492-3391 limits assumed): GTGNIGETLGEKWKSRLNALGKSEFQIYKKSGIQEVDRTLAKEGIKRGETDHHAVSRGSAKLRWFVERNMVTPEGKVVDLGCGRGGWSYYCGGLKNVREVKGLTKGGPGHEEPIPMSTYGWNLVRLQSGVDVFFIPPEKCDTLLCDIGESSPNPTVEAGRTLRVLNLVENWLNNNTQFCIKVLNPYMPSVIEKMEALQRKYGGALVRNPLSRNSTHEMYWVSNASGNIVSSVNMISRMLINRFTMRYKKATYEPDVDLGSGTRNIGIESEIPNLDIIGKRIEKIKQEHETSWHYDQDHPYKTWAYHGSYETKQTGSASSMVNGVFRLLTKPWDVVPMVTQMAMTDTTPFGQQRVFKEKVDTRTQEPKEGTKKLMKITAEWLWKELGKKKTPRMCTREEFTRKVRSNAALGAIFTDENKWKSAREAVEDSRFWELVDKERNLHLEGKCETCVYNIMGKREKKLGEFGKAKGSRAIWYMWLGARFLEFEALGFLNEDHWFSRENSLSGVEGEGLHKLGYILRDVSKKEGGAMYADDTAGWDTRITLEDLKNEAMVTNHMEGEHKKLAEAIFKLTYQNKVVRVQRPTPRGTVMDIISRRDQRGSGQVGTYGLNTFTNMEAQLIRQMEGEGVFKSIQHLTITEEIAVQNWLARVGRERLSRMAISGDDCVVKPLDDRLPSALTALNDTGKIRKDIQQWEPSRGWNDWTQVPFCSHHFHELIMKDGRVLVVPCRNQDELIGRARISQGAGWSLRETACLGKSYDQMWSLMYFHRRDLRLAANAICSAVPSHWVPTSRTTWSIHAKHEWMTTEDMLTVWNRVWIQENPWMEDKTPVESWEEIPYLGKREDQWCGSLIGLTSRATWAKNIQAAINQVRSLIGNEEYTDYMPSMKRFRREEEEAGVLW
Compound,IC50 (HEK293),IC50 [3],EC50 (cells [7]),IC50 (cells [10]),EC50 [11],IC50 [13],other results
Cn1nc(-c2ccc(Cl)cc2)c2cc(C(=O)NCCN3CCOCC3)sc21,> 67.5 µM (inactive),> 67.5 µM (inactive),–,–,–,–,EC50 [1]: 17 µM (active); EC50 [2]: 22.4 µM (active)
Cn1nc(-c2ccc(Cl)cc2)c2cc(C(=O)NCCCN3CCOCC3)sc21,–,–,–,–,–,–,CC50 [4]: > 40 µM (active); AC50 [5]: 2.03 µM (active); IC50 [6]: > 100 µM (active)
COc1ccc(Nc2nc(N3CCCC3)c3ccccc3n2)cc1,–,–,> 29.9 µM (inactive),19.7 µM (inactive),> 3.32 µM (active),7.19 µM (active),AC50 [8]: 8.46 µM (active); IC50 [9]: > 20 µM (inactive); AC50 (INS1): 3.07 µM (active); AC50 [12]: 3.67 µM (active); AC50 [14]: 5.37 µM (active)
O=C(/C(=C/c1ccccc1)n1cncn1)c1ccc(Cl)cc1Cl,–,–,–,–,–,–,IC50 [15]: 150 µM (active); IC50 [16]: 3.22 µM (active)
CCOC(=O)CSc1nc2cc3c(cc2cc1C#N)OCCO3,> 67.5 µM (inactive),> 67.5 µM (inactive),–,–,–,–,–
O=C(O)c1ccccc1C(=O)c1ccc(Sc2ccc(Cl)cc2)c([N+](=O)[O-])c1,> 67.5 µM (inactive),> 67.5 µM (inactive),–,–,–,–,EC50 (BJ [17]): > 150 µM (not active); EC50 [18]: > 150 µM (not active); EC50 (BJ [19]): > 150 µM (not active); EC50 (BJ [20]): > 150 µM (not active); IC50 (Genome polyprotein): 35.1 µM (active)
COc1cc(CNCCc2ccccc2F)ccc1OCc1ccc(Cl)nc1,–,–,11.1 µM (inactive),28.7 µM (inactive),2.83 µM (active),9.47 µM (active),CC50 [4]: > 40 µM (active)
COc1ncnc2c1ncn2CCCNCC(C)c1ccccc1 (stereo unspecified),–,–,> 29.9 µM (inactive),> 29.9 µM (inactive),3.84 µM (active),12.8 µM (inactive),–
